The source of these data is PubChem BioAssay (NCI).

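Method: 48-hour compound exposure of cells in 96-well plates, five concentrations, linear interpolation of endpoints. TGI denotes the concentration required for complete inhibition of growth.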 Where only a bound is given, the exact number is not on record here.

Test systems include SK-MEL-28 melanoma; HS 578T breast; A549 NSCLC; RXF 393 renal; EKVX NSCLC; SK-OV-3 ovarian; MDA-MB-435; CCRF-CEM leukemia; MALME-3M melanoma; NCI-H460 lung; IGROV1 ovarian; NCI-H23 lung; SF-295 CNS; SR leukemia; T-47D breast; SK-MEL-5 melanoma; HCT-116 colon; TK-10 renal; HOP-92 NSCLC.
What all share (assay): inhibition of tumour cell growth, NCI panel, 48 h

With `C=CC(Br)(CBr)CCC(Br)C(C)(C)Cl` (centres undefined), the TGI in the assay with SK-MEL-28 melanoma was 6 µM; with HS 578T breast it was 14.7 µM; in the assay on A549 NSCLC it was 28.6 µM; with RXF 393 renal it was 8.86 µM; with EKVX NSCLC, 26.8 µM; with SK-OV-3 ovarian, 30.1 µM. Also, the TGI is 5.82 µM with MDA-MB-435; 7.45 µM with CCRF-CEM leukemia; 19.2 µM in the assay on MALME-3M melanoma; 6.06 µM in the assay on NCI-H460 lung; 12.8 µM with IGROV1 ovarian; 12.9 µM in the assay on NCI-H23 lung. Besides, the TGI in the assay with SF-295 CNS is 3.6 µM; in the assay with SR leukemia, 3.78 µM; with T-47D breast, 3.95 µM; with SK-MEL-5 melanoma, 23.4 µM; in the assay on HCT-116 colon, 3.4 µM; in the assay on TK-10 renal it was 6.33 µM. In the assay on HOP-92 NSCLC, this compound came in with a TGI of 4.32 µM.

With `CCOC(=O)/C=C/[C@H](O)[C@@H](O)/C=C/C(=O)OCC`, the TGI is 44.3 µM with SK-MEL-28 melanoma; over 100 µM with HS 578T breast; over 100 µM in the assay on A549 NSCLC; 79.4 µM with RXF 393 renal; 58.8 µM in the assay with EKVX NSCLC; over 100 µM with SK-OV-3 ovarian. In addition, the TGI in the assay on MDA-MB-435 was over 100 µM; in the assay with CCRF-CEM leukemia, 32.6 µM; in the assay with MALME-3M melanoma it was 46.8 µM; in the assay on NCI-H460 lung, 43 µM; in the assay on IGROV1 ovarian, over 100 µM; in the assay with NCI-H23 lung, over 100 µM. The TGI with SF-295 CNS was over 100 µM; in the assay on SR leukemia, 40 µM; with T-47D breast, over 100 µM; with SK-MEL-5 melanoma it was over 100 µM; in the assay with HCT-116 colon, 43 µM; with TK-10 renal it was over 100 µM. In the assay on HOP-92 NSCLC, this compound had a TGI of 33.5 µM.

Turning to `Oc1cccc2cc(Br)cnc12`, the TGI in the assay with SK-MEL-28 melanoma was over 100 µM; with HS 578T breast, over 92.6 µM; in the assay with A549 NSCLC it was over 100 µM; in the assay with RXF 393 renal, 88.2 µM; in the assay with EKVX NSCLC it was 99 µM; in the assay with SK-OV-3 ovarian, over 100 µM. Besides, the TGI in the assay on MDA-MB-435 is over 100 µM; in the assay on CCRF-CEM leukemia, 7.81 µM; with MALME-3M melanoma, over 100 µM; in the assay with NCI-H460 lung it was over 70.8 µM; in the assay with IGROV1 ovarian it was 51.5 µM; in the assay on NCI-H23 lung, over 72.8 µM. Further, the TGI in the assay on SF-295 CNS is over 100 µM; with SR leukemia, over 52 µM; in the assay on T-47D breast it was over 25.7 µM; with SK-MEL-5 melanoma it was 48.1 µM; in the assay with HCT-116 colon, over 42.7 µM; in the assay with TK-10 renal, over 100 µM. The TGI in the assay on HOP-92 NSCLC amounted to 74.2 µM.

Consider `CC1Cc2cc(O)c(O)cc2-c2cc(O)c(O)cc2CC1C` (centres undefined), for which the TGI in the assay with SK-MEL-28 melanoma was 43.6 µM; in the assay on HS 578T breast, 61.7 µM; with A549 NSCLC it was 71.1 µM; in the assay with RXF 393 renal it was 56.4 µM; with EKVX NSCLC, 96.2 µM; in the assay with SK-OV-3 ovarian, over 100 µM. Besides, the TGI in the assay on MDA-MB-435 was 10.5 µM; in the assay with CCRF-CEM leukemia it was over 100 µM; with MALME-3M melanoma, 20.6 µM; in the assay on NCI-H460 lung, 42.7 µM; in the assay on IGROV1 ovarian, 47 µM; in the assay with NCI-H23 lung, 38.6 µM. In addition, the TGI in the assay on SF-295 CNS was 20.8 µM; in the assay with SR leukemia, 33 µM; in the assay on T-47D breast, 63.7 µM; in the assay with SK-MEL-5 melanoma, 17.4 µM; in the assay with HCT-116 colon, 34.5 µM; with TK-10 renal, 86.4 µM. The same compound displayed a TGI with HOP-92 NSCLC of 46.7 µM.

For `CN1C=Cc2nccc3cc4c(c1c23)OCO4`, the TGI in the assay with SK-MEL-28 melanoma was 39.2 µM; in the assay on HS 578T breast, over 77.3 µM; with A549 NSCLC, over 55.4 µM; in the assay with RXF 393 renal it was 7.61 µM; in the assay on EKVX NSCLC, 13.8 µM; in the assay with SK-OV-3 ovarian it was 61.6 µM. The TGI in the assay on MDA-MB-435 is 12.1 µM; in the assay with CCRF-CEM leukemia it was over 100 µM; in the assay on MALME-3M melanoma, 0.836 µM; with NCI-H460 lung it was over 33.1 µM; in the assay on IGROV1 ovarian it was over 39.2 µM; with NCI-H23 lung, 10.3 µM. In addition, the TGI in the assay on SF-295 CNS is 10.1 µM; with SR leukemia, 10.9 µM; with T-47D breast, over 27.1 µM; in the assay on SK-MEL-5 melanoma it was 4.84 µM; in the assay on HCT-116 colon, 35.2 µM; with TK-10 renal, 35.4 µM. Further, the TGI in the assay on HOP-92 NSCLC was over 68.5 µM.

As for `O=C(Cc1nc2ncccc2[nH]c1=O)c1c[nH]c2ccccc12`, the TGI with SK-MEL-28 melanoma was determined as 32.8 µM; with HS 578T breast, 40.8 µM; with A549 NSCLC it was 47.8 µM; in the assay on RXF 393 renal it was 39.1 µM; in the assay on EKVX NSCLC it was 56.9 µM; in the assay on SK-OV-3 ovarian, 29.8 µM. Further, the TGI with MDA-MB-435 amounted to 30.7 µM; in the assay on CCRF-CEM leukemia, 40.3 µM; with MALME-3M melanoma, 32.7 µM; in the assay with NCI-H460 lung, 34.4 µM; in the assay on IGROV1 ovarian, 39 µM; in the assay with NCI-H23 lung, 54 µM. The TGI in the assay on SF-295 CNS was 31.9 µM; with SR leukemia, 96.2 µM; in the assay with T-47D breast it was 34.5 µM; with SK-MEL-5 melanoma it was 73 µM; with HCT-116 colon, 49 µM; with TK-10 renal it was 30.4 µM. Besides, the TGI in the assay with HOP-92 NSCLC came out at 38.4 µM.

As for `O=c1oc2ccc(Cl)cc2cc1-c1cn2ccccc2n1`, the TGI with SK-MEL-28 melanoma is over 100 µM; in the assay on HS 578T breast, over 100 µM; with A549 NSCLC, over 89.3 µM; in the assay with RXF 393 renal it was over 44.7 µM; in the assay on EKVX NSCLC it was over 100 µM; in the assay on SK-OV-3 ovarian, 6.52 µM. Besides, the TGI with MDA-MB-435 was over 100 µM; in the assay with CCRF-CEM leukemia, over 100 µM; in the assay with MALME-3M melanoma, 23.5 µM; in the assay with NCI-H460 lung, over 62.5 µM; with IGROV1 ovarian, over 100 µM; with NCI-H23 lung, 46.8 µM. The TGI with SF-295 CNS was 24.5 µM; in the assay on SR leukemia it was over 100 µM; in the assay with T-47D breast, over 100 µM; in the assay on SK-MEL-5 melanoma, over 100 µM; in the assay with HCT-116 colon, 45.2 µM; in the assay on TK-10 renal it was 35.3 µM. The compound also came in with a TGI with HOP-92 NSCLC of over 73.3 µM.

With `Nc1c(N2CCOCC2)c(=O)nc2[nH]/c(=C\c3ccccc3)c(=O)n12`, the TGI with SK-MEL-28 melanoma, with HS 578T breast, in the assay on A549 NSCLC, in the assay on RXF 393 renal, in the assay on EKVX NSCLC and in the assay with SK-OV-3 ovarian was over 100 µM each time. For the same compound, the TGI in the assay with MDA-MB-435, in the assay with CCRF-CEM leukemia, with MALME-3M melanoma, in the assay on NCI-H460 lung, in the assay on IGROV1 ovarian and with NCI-H23 lung was over 100 µM throughout. Also, the TGI in the assay with SF-295 CNS, with SR leukemia, with T-47D breast, in the assay on SK-MEL-5 melanoma, in the assay with HCT-116 colon and in the assay on TK-10 renal was over 100 µM throughout. In addition, the TGI in the assay with HOP-92 NSCLC was over 100 µM.

Turning to `CN(C)CC1CCCCCCCCCC(CN(C)C)C1=O` (centres undefined), the TGI was over 54.4 µM in the assay on SK-MEL-28 melanoma; 24.1 µM with HS 578T breast; over 51.5 µM with A549 NSCLC; over 42.4 µM with RXF 393 renal; over 54.2 µM in the assay with EKVX NSCLC; over 45.6 µM in the assay with SK-OV-3 ovarian. Further, the TGI in the assay with MDA-MB-435 was 19.7 µM; in the assay on CCRF-CEM leukemia it was over 26.4 µM; in the assay on MALME-3M melanoma it was over 65.4 µM; in the assay with NCI-H460 lung, over 57 µM; in the assay with IGROV1 ovarian, over 55.8 µM; in the assay on NCI-H23 lung, over 50.5 µM. Also, the TGI in the assay with SF-295 CNS was over 59.7 µM; with SR leukemia, over 100 µM; with T-47D breast it was 53 µM; in the assay on SK-MEL-5 melanoma, 41.2 µM; in the assay with HCT-116 colon it was over 64.5 µM; in the assay with TK-10 renal, over 53.7 µM. The compound also displayed a TGI in the assay on HOP-92 NSCLC of over 48.4 µM.

As for `O=C(NCCN1CCCCC1)c1ccc(I)cc1`, the TGI with SK-MEL-28 melanoma, with HS 578T breast, in the assay on A549 NSCLC, in the assay with RXF 393 renal, in the assay with EKVX NSCLC and in the assay with SK-OV-3 ovarian was over 100 µM each time. For the same compound, the TGI in the assay with MDA-MB-435, in the assay with CCRF-CEM leukemia, with MALME-3M melanoma, in the assay with NCI-H460 lung, in the assay with IGROV1 ovarian and in the assay on NCI-H23 lung was over 100 µM each time. Further, the TGI with SF-295 CNS, with SR leukemia, with T-47D breast, in the assay on SK-MEL-5 melanoma, in the assay with HCT-116 colon and with TK-10 renal was over 100 µM throughout. Also, the TGI with HOP-92 NSCLC was over 100 µM.

With `N#Cc1c(O)c(N=Nc2ccc(Cl)cc2)c(=O)n2c1[nH]c1ccccc12`, the TGI in the assay with SK-MEL-28 melanoma, in the assay on HS 578T breast, in the assay with A549 NSCLC, in the assay on RXF 393 renal, in the assay with EKVX NSCLC and in the assay with SK-OV-3 ovarian was over 100 µM each time. The TGI in the assay with MDA-MB-435, with CCRF-CEM leukemia, in the assay on MALME-3M melanoma, in the assay with NCI-H460 lung, in the assay on IGROV1 ovarian and in the assay with NCI-H23 lung was over 100 µM throughout. Further, the TGI in the assay on SF-295 CNS, in the assay on SR leukemia, with T-47D breast, in the assay with SK-MEL-5 melanoma, with HCT-116 colon and in the assay with TK-10 renal was over 100 µM in each case. The compound also displayed a TGI with HOP-92 NSCLC of 76.9 µM.
